The values below come from patent publication US12268673B2, “Anhydrous compositions of mTOR inhibitors and methods of use” (PALVELLA THERAPEUTICS, INC., priority 2017, dated 2025).

“Also recorded” adds a separate entry of the source.

This series is described as follows: Ex vivo skin permeation experiment. The class given is in vitro ADME. The conditions noted are these: human donor skin. As to the method: Human donor skin was placed between upper and lower compartments. The lower compartment was filled with receiver fluid. Various rapamycin compositions were applied on the surface of the skin facing the upper compartment (11 formulations (i.e., O3, NA21, NA22, NA21, NA17, TD201, NA19, NA25, AG14, NA26 and NA24), n=6 replicates, dosage 10 mg/cm^2) and left for 24 hrs. A positive displacement pipette was used to apply the formulation (˜10 mg/cm2) to the plunger of a 1 mL syringe. The formulation (10+/−0.5 mg) was applied to the skin surface and spread over the diffusion area using the plunger. Prior to and after the application the weight of the plunger was recorded, from which the dose per cell was calculated.
Following the time period, the excess rapamycin compositions were wiped from the skin surface and the skin layers were separated into stratum corneum, epidermis, and dermis. The Stratum corneum was removed from the human skin using a tape stripping procedure. The epidermis was separated from the dermis by dry heating at 60° C. for 2 min. Rapamycin was extracted from each layer by 90:10 v/v ethanol: water solvent mixture, and quantified. The receiver fluid in the lower compartment was also analyzed for the presence of rapamycin.

As to `CO[C@H]1C[C@@H]2CC[C@@H](C)[C@@](O)(O2)C(=O)C(=O)N2CCCC[C@H]2C(=O)O[C@H]([C@H](C)C[C@@H]2CC[C@@H](O)[C@H](OC)C2)CC(=O)[C@H](C)/C=C(\C)[C@@H](O)[C@@H](OC)C(=O)[C@H](C)C[C@H](C)/C=C/C=C/C=C/1C` [rapamycin], the “distribution of rapamycin over skin surface, stratum corneum, epidermis and dermis” value (10 mg/cm^2, 24 hrs) is “greatest amount of rapamycin was found on the surface of the skin; also recorded: more of the drug residing in the epidermis than either the stratum corneum or dermal layer; also recorded: increase in the amount of rapamycin quantified in both the epidermis and dermis”. In addition, the “rapamycin in the receiver fluid” value (10 mg/cm^2, any time point across the experimental period (24 hrs)) is on record as “not detected”.
